{
  "source": "patent US7592363B2",
  "about": "“Indazoles” (Wyeth, priority 2004, dated 2009)",
  "data": [
    {"units": {"melting point": "°C"}, "values": [
      {"smiles": "CC1CCCN(c2ccc(-c3c4cccc(C(F)(F)F)c4nn3Cc3c(F)cc(F)cc3F)cc2)C1", "note": "(stereo not drawn)", "melting point": 103},
      {"smiles": "COC(=O)C[C@@H]1CCCN(c2ccc(-c3c4cccc(C(F)(F)F)c4nn3Cc3c(F)cc(F)cc3F)cc2)C1", "melting point": 103},
      {"smiles": "COC(=O)C[C@H]1CCCN(c2ccc(-c3c4cccc(C(F)(F)F)c4nn3Cc3c(F)cc(F)cc3F)cc2)C1", "melting point": 103},
      {"smiles": "CCC(CC)n1nc2c(C(F)(F)F)cccc2c1-c1ccc(OC)cc1OC", "note": "[Example 110, 3-(2,4-DIMETHOXYPHENYL)-2-(1-ETHYLPROPYL)-7-(TRIFLUOROMETHYL)-2H-INDAZOLE]", "melting point": "138 to 139"},
      {"smiles": "Fc1ccc(-c2c3cccc(N4CCCC4)c3nn2Cc2ccc(F)cc2F)cc1", "note": "[Example 426, 2-(2,4-DIFLUOROBENZYL)-3-(4-FLUOROPHENYL)-7-PYRROLIDIN-1-YL-2H-INDAZOLE]", "melting point": "112 to 114"},
      {"smiles": "Fc1ccc(-c2c3cccc(C(F)(F)F)c3nn2Cc2c(F)cc(F)cc2F)cc1", "note": "[Example 139, 3-(4-FLUOROPHENYL)-2-(2,4,6-TRIFLUOROBENZYL)-7-(TRIFLUOROMETHYL)-2H-INDAZOLE]", "melting point": 125},
      {"smiles": "COc1ccc(-c2c3cccc(C(F)(F)F)c3nn2CC(C)C)c(OC)c1", "note": "[Example 106, 3-(2,4-DIMETHOXYPHENYL)-2-ISOBUTYL-7-(TRIFLUOROMETHYL)-2H-INDAZOLE]", "melting point": "111 to 112"},
      {"smiles": "COc1ccc(-c2c3cccc(C(F)(F)F)c3nn2C2CCC2)c(OC)c1", "note": "[Example 109, 2-CYCLOBUTYL-3-(2,4-DIMETHOXYPHENYL)-7-(TRIFLUOROMETHYL)-2H-INDAZOLE]", "melting point": "51 to 52"},
      {"smiles": "COc1ccc(-c2c3cccc(C(F)(F)F)c3nn2CC2CCCCC2)c(OC)c1", "note": "[Example 107, 2-(CYCLOHEXYLMETHYL)-3-(2,4-DIMETHOXYPHENYL)-7-(TRIFLUOROMETHYL)-2H-INDAZOLE]", "melting point": "156 to 157"}
    ]}
  ]
}
